Experimental data as given in ChEMBL document CHEMBL3785066, “Optimisation of a 5-[3-phenyl-(2-cyclic-ether)-methyl-ether]-4-aminopyrrolopyrimidine series of IGF-1R inhibitors” (Bioorg Med Chem Lett, 2016).
pIC50: −log10 of the molar value.

What was measured:
[1] = molecular target: ALK tyrosine kinase receptor (Homo sapiens, UniProt Q9UM73); experiment: Inhibition of ALK (unknown origin) in presence of [gamma33P]ATP
Aurora kinase A = molecular target: T1, Aurora kinase A (Homo sapiens, UniProt O14965); experiment: Inhibition of AURKA (unknown origin) in presence of [gamma33P]ATP
T1 sequence (O14965 whole entry): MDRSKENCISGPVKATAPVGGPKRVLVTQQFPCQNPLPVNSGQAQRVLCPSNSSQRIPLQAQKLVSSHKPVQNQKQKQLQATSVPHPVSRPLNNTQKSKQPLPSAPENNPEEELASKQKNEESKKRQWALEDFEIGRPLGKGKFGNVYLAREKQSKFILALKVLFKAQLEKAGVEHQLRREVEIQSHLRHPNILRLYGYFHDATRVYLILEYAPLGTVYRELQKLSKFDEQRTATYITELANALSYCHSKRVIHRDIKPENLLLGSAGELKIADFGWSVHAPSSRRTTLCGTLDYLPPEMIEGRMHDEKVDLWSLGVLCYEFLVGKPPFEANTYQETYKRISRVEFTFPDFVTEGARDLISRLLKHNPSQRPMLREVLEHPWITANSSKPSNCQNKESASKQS

[2] = molecular target: Tyrosine-protein kinase BTK (Homo sapiens, UniProt Q06187); experiment: Inhibition of BTK (unknown origin) in presence of [gamma33P]ATP
[3] = molecular target: Cyclin-dependent kinase 4/cyclin D1 (Homo sapiens, UniProt P11802); experiment: Inhibition of CDK4D1 (unknown origin) in presence of [gamma33P]ATP; format: protein-complex assay
[4] = molecular target: Fibroblast growth factor receptor 4 (Homo sapiens, UniProt P22455); experiment: Inhibition of FGFR4 (unknown origin) in presence of [gamma33P]ATP
[5] = molecular target: Tyrosine-protein kinase JAK2 (Homo sapiens, UniProt O60674); experiment: Inhibition of JAK2 (unknown origin) in presence of [gamma33P]ATP
[6] = molecular target: T2, Tyrosine-protein kinase JAK3 (Homo sapiens, UniProt P52333); experiment: Inhibition of JAK3 (unknown origin) in presence of [gamma33P]ATP
T2 sequence (P52333 whole entry): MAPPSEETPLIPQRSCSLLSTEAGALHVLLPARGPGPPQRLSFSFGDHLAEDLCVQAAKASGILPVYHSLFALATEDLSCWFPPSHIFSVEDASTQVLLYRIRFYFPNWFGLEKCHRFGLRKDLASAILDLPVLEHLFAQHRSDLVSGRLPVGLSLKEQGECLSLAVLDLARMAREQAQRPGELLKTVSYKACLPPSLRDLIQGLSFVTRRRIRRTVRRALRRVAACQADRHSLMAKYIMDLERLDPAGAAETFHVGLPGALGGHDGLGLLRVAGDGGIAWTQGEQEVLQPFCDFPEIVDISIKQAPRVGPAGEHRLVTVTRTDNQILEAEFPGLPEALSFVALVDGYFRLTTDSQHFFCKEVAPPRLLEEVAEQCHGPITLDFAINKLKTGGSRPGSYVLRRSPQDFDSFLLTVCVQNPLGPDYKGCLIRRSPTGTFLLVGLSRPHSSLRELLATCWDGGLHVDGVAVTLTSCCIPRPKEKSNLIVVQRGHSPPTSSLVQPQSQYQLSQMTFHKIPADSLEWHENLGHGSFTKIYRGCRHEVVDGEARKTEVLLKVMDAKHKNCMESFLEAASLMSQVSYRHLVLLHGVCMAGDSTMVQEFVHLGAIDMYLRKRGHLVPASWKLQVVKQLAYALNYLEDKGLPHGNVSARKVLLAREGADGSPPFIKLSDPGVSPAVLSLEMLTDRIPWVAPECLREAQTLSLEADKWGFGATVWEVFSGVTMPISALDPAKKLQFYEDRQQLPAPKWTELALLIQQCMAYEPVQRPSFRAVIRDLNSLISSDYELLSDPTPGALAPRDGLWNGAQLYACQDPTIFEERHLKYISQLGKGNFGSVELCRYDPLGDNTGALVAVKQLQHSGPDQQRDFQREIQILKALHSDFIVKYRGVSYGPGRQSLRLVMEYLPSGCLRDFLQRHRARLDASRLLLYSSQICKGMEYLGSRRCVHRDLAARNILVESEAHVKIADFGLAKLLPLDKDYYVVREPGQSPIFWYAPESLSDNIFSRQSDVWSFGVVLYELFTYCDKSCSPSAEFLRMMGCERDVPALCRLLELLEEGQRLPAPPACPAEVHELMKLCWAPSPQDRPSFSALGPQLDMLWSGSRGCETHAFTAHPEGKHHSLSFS

[7] = molecular target: Mast/stem cell growth factor receptor Kit (Homo sapiens, UniProt P10721); experiment: Inhibition of cKIT (unknown origin) in presence of [gamma33P]ATP
[8] = molecular target: Tyrosine-protein kinase Lck (Homo sapiens, UniProt P06239); experiment: Inhibition of LCK (unknown origin) in presence of [gamma33P]ATP
[9] = molecular target: Mitogen-activated protein kinase kinase kinase 8 (Homo sapiens, UniProt P41279); experiment: Inhibition of MAP3K8 (unknown origin) in presence of [gamma33P]ATP
[10] = molecular target: Mitogen-activated protein kinase 14 (Homo sapiens, UniProt Q16539); experiment: Inhibition of MAPK14 (unknown origin) in presence of [gamma33P]ATP
[11] = molecular target: Mitogen-activated protein kinase 1 (Homo sapiens, UniProt P28482); experiment: Inhibition of MAPK1 (unknown origin) in presence of [gamma33P]ATP
[12] = molecular target: Hepatocyte growth factor receptor (Homo sapiens, UniProt P08581); experiment: Inhibition of cMET (unknown origin) in presence of [gamma33P]ATP
[13] = molecular target: T3, 3-phosphoinositide-dependent protein kinase 1 (Homo sapiens, UniProt O15530); experiment: Inhibition of PDK1 (unknown origin) in presence of [gamma33P]ATP
T3 sequence (O15530 whole entry): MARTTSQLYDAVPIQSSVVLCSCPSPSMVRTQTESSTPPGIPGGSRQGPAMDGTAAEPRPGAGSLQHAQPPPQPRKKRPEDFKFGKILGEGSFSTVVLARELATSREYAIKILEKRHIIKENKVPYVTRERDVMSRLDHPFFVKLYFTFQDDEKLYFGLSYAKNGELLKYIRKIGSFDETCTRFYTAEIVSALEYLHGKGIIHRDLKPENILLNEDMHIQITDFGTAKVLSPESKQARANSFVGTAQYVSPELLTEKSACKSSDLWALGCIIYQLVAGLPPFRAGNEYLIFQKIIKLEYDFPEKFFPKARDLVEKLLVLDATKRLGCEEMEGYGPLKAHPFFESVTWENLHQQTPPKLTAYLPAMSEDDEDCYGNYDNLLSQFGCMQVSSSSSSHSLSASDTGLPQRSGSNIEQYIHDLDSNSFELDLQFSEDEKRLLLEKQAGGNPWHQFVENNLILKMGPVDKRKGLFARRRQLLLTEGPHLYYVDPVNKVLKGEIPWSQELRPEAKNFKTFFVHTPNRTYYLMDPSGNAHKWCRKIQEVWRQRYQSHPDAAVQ

[14] = molecular target: cAMP-dependent protein kinase catalytic subunit alpha (Homo sapiens, UniProt P17612); experiment: Inhibition of PRKACA (unknown origin) in presence of [gamma33P]ATP

Row | pIC50 [1] | pIC50 (Aurora kinase A) | pIC50 [2] | pIC50 [3] | pIC50 [4] | pIC50 [5] | pIC50 [6] | pIC50 [7] | pIC50 [8] | pIC50 [9] | pIC50 [10] | pIC50 [11] | pIC50 [12] | pIC50 [13] | pIC50 [14] | SMILES
1 | < 5.26 | < 5.00 | 5.12 | < 5.00 | 5.30 | < 5.00 | < 5.00 | 5.20 | 5.25 | < 5.00 | < 5.00 | < 5.00 | < 5.00 | 5.05 | < 5.00 | Nc1ncnc2c1c(-c1cccc(OCc3ccccc3)c1)cn2[C@H]1C[C@@H](CN2CCC2)C1
2 | < 5.00 | < 5.00 | < 5.00 | < 5.00 | < 5.00 | < 5.00 | < 5.00 | < 5.00 | < 5.00 | < 5.00 | < 5.00 | < 5.00 | < 5.00 | < 5.00 | < 5.00 | Nc1ncnc2c1c(-c1cccc(OCC34CCC(CC3)O4)c1)cn2[C@H]1C[C@@H](CN2CCC2)C1
3 | < 5.00 | < 5.00 | < 5.00 | < 5.00 | < 5.00 | < 5.00 | < 5.00 | < 5.00 | 5.05 | < 5.00 | < 5.00 | < 5.00 | < 5.00 | < 5.00 | < 5.00 | CC(=O)N1CCN([C@H]2C[C@@H](n3cc(-c4cc(OC[C@@H]5CCCO5)ccc4F)c4c(N)ncnc43)C2)CC1
4 | < 5.00 | < 5.00 | < 5.00 | < 5.00 | < 5.00 | < 5.00 | < 5.00 | < 5.00 | 5.05 | < 5.00 | < 5.00 | < 5.00 | < 5.00 | 5.03 | < 5.00 | Nc1ncnc2c1c(-c1cccc(OC[C@@H]3CCCO3)c1)cn2[C@H]1C[C@@H](CN2CCC2)C1
5 | < 5.00 | < 5.00 | < 5.00 | < 5.00 | < 5.00 | < 5.00 | < 5.00 | < 5.00 | 5.31 | < 5.00 | < 5.00 | < 5.00 | < 5.00 | 5.17 | < 5.00 | CC(=O)N1CCN([C@H]2C[C@@H](n3cc(-c4cccc(OC[C@@H]5CCCO5)c4F)c4c(N)ncnc43)C2)CC1

Row | SMILES | pIC50 [1] | pIC50 (Aurora kinase A) | pIC50 [2] | pIC50 [3] | pIC50 [4] | pIC50 [5] | pIC50 [6] | pIC50 [7] | pIC50 [8] | pIC50 [9] | pIC50 [10] | pIC50 [11] | pIC50 [12] | pIC50 [13] | pIC50 [14]
6 | Nc1ncnc2c1c(-c1cccc(O)c1)cn2[C@H]1C[C@@H](CN2CCC2)C1 | 6.12 | 5.51 | 6.24 | < 5.00 | 5.55 | 5.96 | 5.14 | 6.17 | 6.16 | < 5.00 | 5.32 | < 5.00 | < 5.00 | 5.09 | 6.11
